# Source: patent US20230310388A1, “Methods and Compositions for Treating Fungal Infections” (Neoculi Pty Ltd, priority 2020, published 2023)
# Where “and” joins values, the source holds several entries; their conditions need not be identical. Identical values can stand only once.
# Tested on: Candida albicans ATCC14053
# Experiment: Broth micro-dilution screen at 16 μg/mL and MIC (Example 9)
# Assay type: cell-based
# Settings: C. albicans ATCC14053; test range 0.25-64 μg/mL; duplicate
# Experimental: The antifungal activity of 201 NCL analogs against Candida albicans ATCC14053 in vitro was investigated. A broth micro-dilution method was used, according to CLSI guidelines as described. NCL analogs were dissolved in DMSO and originally screened at a single concentration of 16 μg/mL.
row,Structure (SMILES),MIC
1,Nc1nc(NN=Cc2cccc(O)c2O)cc(NN=Cc2cccc(O)c2O)n1.O=Cc1cccc(O)c1O [NCL244],>64 µg/mL
2,C/C(=N\NC(=N)N/N=C(\C)c1ccc(C)cc1)c1ccc(C)cc1.Cl [NCL217],4 µg/mL
3,N=C(N)NN=C(CCC1CCCC1)c1ccc(Cl)cc1 [NCL266],4 µg/mL
4,Cl.N=C(NN=Cc1ccc2[nH]ccc2c1)NN=Cc1ccc2[nH]ccc2c1 [NCL146],4 µg/mL and 8 µg/mL
5,CCCc1ccc(C=NNC(=N)NN=Cc2ccc(CCC)cc2)cc1.Cl [NCL121],4 µg/mL and 8 µg/mL
6,Cc1cccc(C=NNC(=N)NN=Cc2cccc(C)c2)c1.Cl [NCL040],8 µg/mL and 16 µg/mL
7,Cc1ccc(C=NNC(=N)NN=Cc2ccc(C)cc2)cc1.Cl [NCL038],2 µg/mL and 4 µg/mL
8,Cc1ccccc1/C=N/NC(=N)N/N=C/c1ccccc1C.Cl [NCL039],4 µg/mL and 8 µg/mL
9,NC(=NN=Cc1ccc(Cl)cc1)N(N=Cc1ccc(Cl)cc1)C(=O)NCc1ccccc1 [NCL227],>64 µg/mL
10,CSc1ccc(C=NNC(=N)NN=Cc2ccc(SC)cc2)cc1.Cl [NCL140],1 µg/mL and 2 µg/mL

# Same assay, conditions: single concentration 16 μg/mL; Growth or No growth of C. albicans ATCC14053
row,Structure (SMILES),Screen at 16 μg/mL
1,COc1ccc(C=NNc2cc(NN=Cc3ccc(OC)cc3)nc(N)n2)cc1 [NCL230],Growth
2,COc1ccc(C=NNC(=N)NN=Cc2ccc(OC)c(O)c2)cc1O.Cl [NCL125],Growth
3,COc1cccc(C=NNC(=O)NN=Cc2cccc(OC)c2)c1 [NCL010],Growth
4,Cl.N=C(N)NN=Cc1cccc(F)c1 [NCL017],Growth
5,Cl.N=C(NN=Cc1ccccc1[N+](=O)[O-])NN=Cc1ccccc1[N+](=O)[O-] [NCL102],Growth
6,CCC(=NNC(=N)N)c1ccc(Cl)cc1 [NCL234],Growth
7,Nc1nc(NN=Cc2cccc(O)c2O)cc(NN=Cc2cccc(O)c2O)n1.O=Cc1cccc(O)c1O [NCL244],Growth
8,Cl.N=C(N)NN=C(CNN)c1ccc(Cl)cc1 [NCL190],Growth
9,Cc1ccccc1C=NNC(=N)N.Cl [NCL045],Growth
10,Cl.N=C(NN=Cc1c(Cl)cccc1Cl)NN=Cc1c(Cl)cccc1Cl [NCL137],Growth
11,Nc1nc(NN=CCCc2ccccc2)cc(NN=CCCc2ccccc2)n1 [NCL262],Growth
12,CCCC(=NNC(=N)N)c1ccc(Cl)cc1.Cl [NCL233],Growth
13,CC(=NNC(=N)N)c1ccc(Cl)cc1F [NCL236],Growth
14,Cl.N=C(NN=Cc1ccc(C=CC(=O)O)cc1)NN=Cc1ccc(C=CC(=O)O)cc1 [NCL148],Growth
15,Cc1ccc(C=NNc2nc(N)nc(NN=Cc3ccc(C)cc3)n2)cc1 [NCL206],Growth
16,N=C(N)NN=Cc1ccc(Cl)cc1F [NCL235],Growth
17,COc1cc(C=NNC(=N)NN=Cc2cc(Br)c(OC)c(OC)c2)cc(Br)c1OC.Cl [NCL130],Growth
18,CC(=NNC(=N)NN=C(C)c1ccc(C(F)(F)F)cc1)c1ccc(C(F)(F)F)cc1.Cl [NCL061],Growth
19,CCO/C(N)=N/N=C(\C)c1ccc(Cl)cc1 [NCL162],Growth
20,Cl.Cl.Nc1nc(NN=CC2CCCCC2)cc(NN=CC2CCCCC2)n1 [NCL203],Growth
21,Cl.N=C(NN=CC(=Cc1ccccc1)c1ccccc1)NN=CC(=Cc1ccccc1)c1ccccc1 [NCL138],Growth
22,CCCC(=NNC(=N)NN=C(CCC)c1ccc(Cl)cc1)c1ccc(Cl)cc1.Cl [NCL156],Growth
23,Cl.N=C(NN=Cc1ccc(Cl)o1)NN=Cc1ccc(Cl)o1 [NCL145],Growth
24,COc1cccc(C=NNC(=N)NN=Cc2cccc(OC)c2)c1.Cl [NCL029],Growth
25,Nc1nc(NN=Cc2ccc(Cl)cc2)cc(NN=Cc2ccc(Cl)cc2)n1 [NCL179],Growth
26,C/C(=N\NC(=N)N/N=C(\C)c1ccc(C)cc1)c1ccc(C)cc1.Cl [NCL217],No growth

row,Structure (SMILES),Screen at 16 μg/mL
1,Cc1ccc(/C=N/NC(=N)N)cc1.Cl [NCL044],Growth
2,CC(=NNc1nc(N)nc(NN=C(C)c2ccc(Cl)cc2)n1)c1ccc(Cl)cc1 [NCL208],Growth
3,CC(C)COC(=O)N(N=Cc1ccc(Cl)cc1)C(N)=NN=Cc1ccc(Cl)cc1 [NCL225],Growth
4,Cl.N=C(NN=Cc1cccc(O)c1O)NN=Cc1cccc(O)c1O [NCL101],No growth
5,Cl.N=C(N)NN=Cc1cnc2ccccc2n1 [NCL278],Growth
6,O=C(NN=Cc1ccc(C(F)(F)F)cc1)NN=Cc1ccc(C(F)(F)F)cc1 [NCL012],Growth
7,N=C(N)NN=C(CCC1CCCC1)c1ccc(Cl)cc1 [NCL266],No growth
8,CC(C)(C)c1ccc(/C=N/NC(=N)N/N=C/c2ccc(C(C)(C)C)cc2)cc1.Cl [NCL099],Growth
9,Cl.N=C(NN=Cc1cc(F)ccc1F)NN=Cc1cc(F)ccc1F [NCL118],Growth
10,Cl.N=C(NN=Cc1ccc2[nH]ccc2c1)NN=Cc1ccc2[nH]ccc2c1 [NCL146],No growth
11,Cl.N=C(N)NN=Cc1ccc2nsnc2c1 [NCL280],Growth
12,Cl.N=C(N)NN=Cc1nc2ccccc2s1 [NCL279],Growth
13,Cl.N=C(NN=Cc1ccc(Br)o1)NN=Cc1ccc(Br)o1 [NCL144],Growth
14,Nc1nc(NN=Cc2ccccc2O)cc(NN=Cc2ccccc2O)n1 [NCL202],Growth
15,Cl.N=C(NN=Cc1ccoc1)NN=Cc1ccoc1 [NCL095],Growth
16,CC(=NNC(=N)NN=C(C)c1ccccc1)c1ccccc1.Cl [NCL143],Growth
17,CCCc1ccc(C=NNC(=N)NN=Cc2ccc(CCC)cc2)cc1.Cl [NCL121],No growth
18,Nc1nc(NN=Cc2ccncc2)cc(NN=Cc2ccncc2)n1 [NCL241],Growth
19,Cl.N=C(N)N/N=C/c1ccc(Cl)cc1 [NCL030],Growth
20,CCCCCCCC(=NNC(=N)NN=C(CCCCCCC)c1ccc(Cl)cc1)c1ccc(Cl)cc1 [NCL272],Growth
21,Cl.N=C(N)N/N=C/c1ccc(C(F)(F)F)cc1 [NCL041],Growth
22,Nc1nc(NN=Cc2ccc(O)cc2O)cc(NN=Cc2ccc(O)cc2O)n1 [NCL256],Growth
23,Nc1nc(NN=CC2CCCCC2)nc(NN=CC2CCCCC2)n1 [NCL213],Growth
24,Cl.N=C(N)NN=Cc1cccc(C(F)(F)F)c1 [NCL043],Growth
25,Nc1nc(NN=Cc2ccc(-c3ccccc3)cc2)cc(NN=Cc2ccc(-c3ccccc3)cc2)n1 [NCL255],Growth
26,Cc1cccc(C=NNC(=N)NN=Cc2cccc(C)c2)c1.Cl [NCL040],No growth

row,Structure (SMILES),Screen at 16 μg/mL
1,Cl.N=C(NN=Cc1ccccc1)NN=Cc1ccccc1 [NCL100],Growth
2,Nc1nc(NN=Cc2ccc(O)cc2)cc(NN=Cc2ccc(O)cc2)n1 [NCL196],Growth
3,CC(C)(C)c1ccc(C=NNc2cc(NN=Cc3ccc(C(C)(C)C)cc3)nc(N)n2)cc1.Cl.Cl [NCL198],Growth
4,Cc1ccc(C=NNC(=N)NN=Cc2ccc(C)cc2)cc1.Cl [NCL038],No growth
5,Nc1nc(NN=Cc2cccc3ccccc23)cc(NN=Cc2cccc3ccccc23)n1 [NCL245],Growth
6,CC(=NNC(=N)NN=C(C)c1ccc(Br)cc1)c1ccc(Br)cc1.Cl [NCL155],Growth
7,Cc1ccccc1/C=N/NC(=N)N/N=C/c1ccccc1C.Cl [NCL039],No growth
8,Cl.N=C(NN=Cc1cnc2ccccc2n1)NN=Cc1cnc2ccccc2n1 [NCL147],Growth
9,Cl.N=C(NN=CC1=C(Cl)c2cc(F)ccc2OC1)NN=CC1=C(Cl)c2cc(F)ccc2OC1 [NCL132],Growth
10,Cl.N=C(N)NN=Cc1cccc(Cl)c1 [NCL052],Growth
11,Nc1nc(NN=CC=Cc2ccccc2)cc(NN=CC=Cc2ccccc2)n1 [NCL246],Growth
12,NC(=NN=Cc1ccc(Cl)cc1)N(N=Cc1ccc(Cl)cc1)C(=O)NCc1ccccc1 [NCL227],Growth
13,Cl.N=C(N)N/N=C/c1cccc2nsnc12 [NCL281],Growth
14,Cl.N=C(NN=Cc1cccc(O)c1)NN=Cc1cccc(O)c1 [NCL108],Growth
15,CC(=O)Nc1cc(Cl)ccc1C=NNC(=N)NN=Cc1ccc(Cl)cc1NC(C)=O [NCL170],Growth
16,O=C(NN=Cc1ccccc1Cl)NN=Cc1ccccc1Cl [NCL002],Growth
17,Cl.N=C(NN=Cc1ccc2nsnc2c1)NN=Cc1ccc2nsnc2c1 [NCL277],Growth
18,Nc1nc(NN=Cc2ccc(O)cc2)nc(NN=Cc2ccc(O)cc2)n1 [NCL211],Growth
19,Clc1ccc(CNCCCCNCc2ccc(Cl)cc2)cc1 [NCL258],Growth
20,Cc1cccc(C=NNC(=N)NN=Cc2cccc(C)c2O)c1O.Cl [NCL152],Growth
21,Cl.N=C(NN=Cc1ccc2ccccc2c1)NN=Cc1ccc2ccccc2c1 [NCL093],Growth
22,CCCCc1ccc(C=NNC(=N)NN=Cc2ccc(CCCC)cc2)cc1.Cl [NCL136],Growth
23,O=C(NN=Cc1ccccc1C(F)(F)F)NN=Cc1ccccc1C(F)(F)F [NCL013],Growth
24,CSc1ccc(C=NNC(=N)NN=Cc2ccc(SC)cc2)cc1.Cl [NCL140],No growth
